Activity calls are given as the source filed them. How the calls were made is not given here.

Sequence of Tyrosine-protein kinase ABL1 (Homo sapiens) + Ras and Rab interactor 1 (Homo sapiens) (P00519 whole entry, looked up): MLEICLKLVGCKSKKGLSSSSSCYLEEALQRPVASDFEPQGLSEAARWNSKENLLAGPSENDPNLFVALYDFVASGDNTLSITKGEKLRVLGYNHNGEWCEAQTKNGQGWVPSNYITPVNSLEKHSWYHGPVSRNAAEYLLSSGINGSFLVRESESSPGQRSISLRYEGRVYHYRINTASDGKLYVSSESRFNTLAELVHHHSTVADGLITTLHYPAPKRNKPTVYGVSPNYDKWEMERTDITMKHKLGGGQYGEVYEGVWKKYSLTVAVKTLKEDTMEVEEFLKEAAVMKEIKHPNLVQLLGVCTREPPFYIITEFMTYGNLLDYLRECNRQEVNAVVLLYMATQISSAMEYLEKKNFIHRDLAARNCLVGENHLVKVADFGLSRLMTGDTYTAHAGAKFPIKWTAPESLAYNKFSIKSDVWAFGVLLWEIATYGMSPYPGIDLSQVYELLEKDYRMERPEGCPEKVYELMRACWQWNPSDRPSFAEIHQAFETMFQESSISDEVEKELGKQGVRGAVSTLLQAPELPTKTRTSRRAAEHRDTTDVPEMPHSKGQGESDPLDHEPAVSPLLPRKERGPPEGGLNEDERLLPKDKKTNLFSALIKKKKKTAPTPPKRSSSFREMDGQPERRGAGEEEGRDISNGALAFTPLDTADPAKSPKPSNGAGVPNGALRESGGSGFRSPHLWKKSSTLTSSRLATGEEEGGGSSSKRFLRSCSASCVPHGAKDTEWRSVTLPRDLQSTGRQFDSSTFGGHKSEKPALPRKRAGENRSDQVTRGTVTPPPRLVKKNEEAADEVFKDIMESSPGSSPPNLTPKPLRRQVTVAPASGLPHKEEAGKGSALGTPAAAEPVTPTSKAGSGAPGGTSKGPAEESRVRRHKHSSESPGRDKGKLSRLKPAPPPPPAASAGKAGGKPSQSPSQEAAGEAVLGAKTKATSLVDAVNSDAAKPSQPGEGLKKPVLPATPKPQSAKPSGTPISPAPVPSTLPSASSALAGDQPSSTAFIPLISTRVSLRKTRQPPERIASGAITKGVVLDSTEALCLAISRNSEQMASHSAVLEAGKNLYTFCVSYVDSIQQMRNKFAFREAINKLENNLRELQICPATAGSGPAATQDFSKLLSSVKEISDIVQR
Sequence of Tyrosine-protein kinase ABL1 (Homo sapiens) + Ras and Rab interactor 1 (Homo sapiens) (Q13671 whole entry, looked up): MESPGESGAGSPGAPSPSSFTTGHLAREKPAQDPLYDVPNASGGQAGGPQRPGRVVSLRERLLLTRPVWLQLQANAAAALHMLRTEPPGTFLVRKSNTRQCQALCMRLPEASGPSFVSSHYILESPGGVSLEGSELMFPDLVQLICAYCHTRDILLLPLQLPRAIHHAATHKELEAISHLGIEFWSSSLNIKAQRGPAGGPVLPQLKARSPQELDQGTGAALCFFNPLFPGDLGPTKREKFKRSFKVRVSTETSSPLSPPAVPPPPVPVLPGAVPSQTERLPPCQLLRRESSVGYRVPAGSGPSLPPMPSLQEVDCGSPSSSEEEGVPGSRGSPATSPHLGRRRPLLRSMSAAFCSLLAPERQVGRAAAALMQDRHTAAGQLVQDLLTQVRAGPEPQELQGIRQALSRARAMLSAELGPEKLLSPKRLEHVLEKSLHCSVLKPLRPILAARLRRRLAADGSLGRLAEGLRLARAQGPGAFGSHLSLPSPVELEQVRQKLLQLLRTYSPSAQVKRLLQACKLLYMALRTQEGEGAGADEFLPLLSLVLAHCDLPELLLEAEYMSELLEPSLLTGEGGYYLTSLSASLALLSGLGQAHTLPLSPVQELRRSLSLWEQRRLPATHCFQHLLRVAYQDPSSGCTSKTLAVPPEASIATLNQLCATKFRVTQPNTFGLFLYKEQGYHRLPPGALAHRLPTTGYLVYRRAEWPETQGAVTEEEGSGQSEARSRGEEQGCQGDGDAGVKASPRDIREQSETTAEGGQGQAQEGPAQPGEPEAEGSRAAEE

The assay has as its target Tyrosine-protein kinase ABL1 (Homo sapiens) + Ras and Rab interactor 1 (Homo sapiens) (UniProt P00519+Q13671). The experiment in a line: concentration response for Abl-Rin1 disruption – biochemical, TR-FRET, dose response, late-stage follow-up (AID 602398). As to conditions: TR-FRET Rin1-Abl binding. (In general: Time-resolved FRET reads energy transfer from a long-lived donor to a nearby acceptor.)
As to `CSc1ccccc1OCc1cc(C(=O)N2CCNC(=O)C2)no1`, the concentration for half-maximal inhibition (IC50) (as a rule, the point on the concentration scale where inhibition reaches its midpoint) is 5.94 µM.

Turning to `Cn1c(=O)c2c(nc(-n3ccnc3)n2Cc2ccc(Cl)cc2Cl)n(C)c1=O`, the half-inhibitory concentration (IC50) was 4.31 µM.

Turning to `COc1cccc(CSc2nnc(CSc3nc4nc(C)cc(C)n4n3)s2)c1`, the 50% inhibitory concentration (IC50) was 9.57 µM.

With `CN(Cc1c(F)cccc1Cl)C(=O)CNC(=O)c1ccc2c(c1)OCO2`, the 50% inhibitory concentration (IC50) was 3.77 µM.

As for `COc1ccc(CCNc2cc(=O)[nH]c(N)n2)cc1`, the half-inhibitory concentration (IC50) was 4.01 µM.

Take `O=c1cc(OCc2ccccc2)cc[nH]1`: the concentration for half-maximal inhibition (IC50) was 0.0161 µM.

On to `CN(C(=O)c1ccc(NC(=O)Cc2ccc(NC(=O)C3CCN(C(=O)c4ccccc4)CC3)cc2)cc1)C1CC1`, for which the IC50 is 2.53 µM.

`Cc1c(C(=O)NCC(c2ccco2)N(C)C)oc2c(Cl)cccc12` (stereo not drawn): the half-maximal inhibitory concentration (IC50) was 4.68 µM.

On to `CCOC(=O)N1CCN(C(=O)Nc2ccc(NC(=O)N3CCN(C(=O)OCC)CC3)cc2)CC1`, for which the IC50 entry was “inactive”.

Turning to `CN(CCc1ccccc1)C(=O)c1ccc(NC(=O)Cc2ccc(NC(=O)C3CCN(C(=O)c4ccccc4)CC3)cc2)cc1`, the IC50 is 8.52 µM.

As to `O=C(Cc1ccc(NC(=O)C2CCN(C(=O)C3CCCCC3)CC2)cc1)Nc1ccc(C(=O)N2CCOCC2)cc1`, the IC50 entry is “inactive”.

Regarding `CC(=O)Nc1ccc(NC(=O)C2CCN(C(=O)c3cccs3)CC2)cc1`, the half-maximal inhibitory concentration (IC50) was 2.17 µM.

As to `O=C(Cc1ccc(NC(=O)C2CCN(C(=O)c3ccccc3)CC2)cc1)Nc1ccc(C(=O)N2CCOCC2)cc1`, the IC50 entry was “inactive”.

Regarding `COc1ccc2oc(C(=O)NCC(c3ccco3)N(C)C)c(C)c2c1` (stereo not drawn), the concentration for half-maximal inhibition (IC50) was 5.19 µM.

Take `CCOC(=O)N1CCC(NC(=O)CCc2nc(C3=CCN(C)CC3)no2)CC1`: the IC50 is 9.41 µM.

On to `CN(CCc1ccccc1)C(=O)c1ccc(NC(=O)Cc2ccc(NC(=O)C3CCN(C(=O)C4CCCC4)CC3)cc2)cc1`, for which the IC50 is 5.22 µM.

As to `O=C(Cc1ccc(NC(=O)C2CCN(C(=O)C3CCCC3)CC2)cc1)Nc1ccc(C(=O)N2CCOCC2)cc1`, the half-maximal inhibitory concentration (IC50) is 4.37 µM.

Consider `N#Cc1ccccc1Sc1ccccc1C(=O)NCC(c1ccco1)N1CCCC1` (stereo not drawn), for which the IC50 is 4.08 µM.

The values are drawn from PubChem BioAssay AID602398 (The Scripps Research Institute Molecular Screening Center, 2012).
